Patent US20200352912A1, “ANTIMICROBIAL COMPOSITIONS AND METHODS OF USING THE SAME” (The Board Of Supervisors Of Louisiana State University And …, priority 2018, published 2020)

What was measured:
S. aureus strain 43300 = experiment: hemolysis assay; format: cell-based, Staphylococcus aureus
Procedure: (A) Macroscopic analysis of S. aureus hemolytic activity. S. aureus was spotted on Mueller-Hinton agar containing sheep blood and/or various concentrations of L-161, 982, and incubated at 37 C for 24 h (0, 25 50, 100) or 72 h (200). (B) Width of the zone of RBC clearance was measured at 4 points around each S. aureus area of growth in 2 independent replicates. * p<0.05 control vs. drug-treated.
Strains and growth conditions. The methicillin-resistant S. aureus strain NRS383 was obtained from the Network on Antimicrobial Resistance in S. aureus (NARSA) data bank. As NRS383 has little or no hemolytic activity or pigmentation, S. aureus strain 43300 (ATCC) was used for the hemolysis and staphyloxanthin assays. Frozen stocks were obtained at −80° C. and streaked onto trypticase soy agar (TSA) plates at 37° C. prior to use. A single colony was transferred to 10 ml of trypticase soy broth (TSB) and shaken at 37° C. overnight. […]
Hemolysis Assay. Hemolytic activity was measured using Mueller-Hinton agar plates containing 5% defribinated sheep blood (Thermo Fisher)+/−L-161, 982 at a final concentration of 50 μg/ml. […] Plates were placed on a light box and digitally photographed and images were analyzed using Photoshop CS3. […] The width of each zone was measured at 0, 90, 180, 270° around growth spots (2-3 spots/group) using the ruler tool. […]

S. aureus NRS383 = experiment: planktonic antimicrobial assay (OD600 growth); format: cell-based, Staphylococcus aureus; settings: 100 μg/ml (inhibitor-specific concentrations b175), OD600 up to 24 h
Procedure: Effect of COX enzyme inhibitors or PGE2 EP receptor antagonists on microbial growth. The antimicrobial activity of selective COX enzyme inhibitor or PGE2 EP receptor antagonist on the growth of C. albicans DAY185 (A), S. aureus NRS383 (B) and MRSA and MSSA clinical isolates (C). Growth of C. albicans and S. aureus was monitored for up to 24 h in medium alone or supplemented with DMSO or EP receptor antagonists or COX enzyme inhibitor at physiologically relevant concentrations. Data shown are representative of three independent experiments.
C. albicans and S. aureus were grown as described above. […] Cells were grown with shaking as described above, and 1 ml aliquots were removed each hour in duplicate and optical density at 600 nm measured (OD600) by spectrophotometer (Biomate 3S, Thermo Scientific).

[1] = test system: dual-species biofilm with C. albicans; experiment: biofilm formation on polystyrene (XTT, CFU); format: cell-based, C. albicans and S. aureus
Procedure: The effect of L-161,982 on biofilm formation was tested. Mono- and dual-species C. albicans and/or S. aureus biofilms were grown on 96-well plates for 24 h with the indicated concentration of L-161, 982. After incubation, metabolic activity of biofilms was quantified by the XTT assay (A) and then biofilms were disrupted to determine live colony forming units (CFU) (B). The results are cumulative of three independent experiments with duplicate samples. Statistics was performed using One-way ANOVA with the Tukey post-hoc test for the XTT assay. The Mann-Whitney U test was used to analyze CFU data. Significance is indicated as follows: ns—not significant, *P<0.05; *** P<0.001. Error bars represent standard deviation.
Following growth as described above, microbes were washed in phosphate-buffered saline (PBS) by centrifugation, counted on a hemocytometer, and adjusted to 2×10^7 CFU/ml in RPMI buffered with MOPS (165 mM). […]
The XTT reduction assay was used to determine the metabolic activity of biofilms following treatment with L-161, 982 (17). Briefly, wells were washed once in PBS, and plates incubated at 37° C. for 2 h with 200 μl XTT working reagent (0.5 mg/ml XTT and 1 μM Menadione) and the resulting absorbance measured at 490 nm on a microplate spectrophotometer. […]

EP1 = EP1 (Homo sapiens, UniProt P34995); settings: cited from earlier work
EP1, sequence (P34995 whole entry): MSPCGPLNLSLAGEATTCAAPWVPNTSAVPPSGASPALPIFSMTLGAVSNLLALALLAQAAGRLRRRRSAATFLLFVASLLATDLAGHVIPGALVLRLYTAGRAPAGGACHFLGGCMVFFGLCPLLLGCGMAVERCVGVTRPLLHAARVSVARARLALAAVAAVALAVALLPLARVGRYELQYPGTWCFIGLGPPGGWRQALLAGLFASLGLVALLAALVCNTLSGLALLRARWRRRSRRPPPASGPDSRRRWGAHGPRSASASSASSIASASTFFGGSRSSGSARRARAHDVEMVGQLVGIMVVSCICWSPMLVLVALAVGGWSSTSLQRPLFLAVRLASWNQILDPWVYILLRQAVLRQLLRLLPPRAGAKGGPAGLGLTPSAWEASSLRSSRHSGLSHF

## CCCCc1nn(-c2ccccc2C(F)(F)F)c(=O)n1Cc1ccc(-c2ccccc2S(=O)(=O)NC(=O)c2sccc2C)cc1 [L-161, 982, N-[[4′-[[3-Butyl-1,5-dihydro-5-oxo-1-[2-(trifluoromethyl)phenyl]-4H-1,2,4-triazol-4-yl]methyl][1,1′-biphenyl]-2-yl]sulfonyl]-3-methyl-2-thiophenecarboxamide]
S. aureus strain 43300
  hemolytic activity, zones of clearance on blood agar: significantly reduced zones of clearance
S. aureus NRS383
  growth of S. aureus: significant inhibitory effect
[1]
  inhibitory effect in dual-species biofilm: no inhibitory effect
EP1
  Ki: 17 µM
